Measurements reported in patent US20140179766A1, “IDENTIFICATION OF THROMBOSIS OR BLEEDING RISK IN AN INDIVIDUAL WITH AND WITHOUT ANTI-PLATELET THERAPY” (ROYAL COLLEGE OF SURGEONS IN IRELAND, priority 2011, published 2014).

Test system: 11-dehydro-thromboxane B2 (TxM)
Test: Urinary TxM (11-dehydro-thromboxane B2) by liquid chromatography/tandem mass spectrometry in participants of the HACVD sub-study of ASCOT
Format: in vivo, human
Conditions: SNP association with TxM seen only in patients not taking aspirin
Experimental: The genetic determinants of urinary TxM were investigated. 540 participants in the Hypertension Associated Cardiovascular Disease (HACVD) sub-study of ASCOT gave urine samples at two separate time-points. TxM was measured using liquid chromatography/tandem mass spectrometry, expressed as pg/mg creatinine to correct for urine concentration. All subjects were genotyped on the CVD50K chip, a cardiovascular-specific chip with >50,000 SNPs. Usual quality control measures were applied. Linear regression analysis was performed, assuming an additive genetic model, adjusting for the covariates; age, sex, smoking habit, diabetes, systolic blood pressure, BMI, HDL, LDL, aspirin and anti-hypertensive regimen.
Most interesting of all was the observation that the association of TxM with the 21 PPARGC1β gene SNPs was almost totally driven by the patients not taking aspirin (beta-values range; +184-+392 pg/mg p-values range; 0.00002-0.06), whilst associations between these same 21 SNPs and TxM amongst aspirinated subjects were in large part not statistically significant (beta-values range; −10-+134 pg/mg p-values range; 0.02-0.97).

CC(=O)Oc1ccccc1C(=O)O [aspirin]
Effect on excess production of thromboxane in carriers of PPARGC1β genetic variants: completely, or in large part, blocks the excess production of thromboxane
